Experimental data as given in patent US5968791A, “Plant lysophosphatidic acid acyltransferases” (Calgene, Inc., priority 1995, dated 1999).

Each molecule was assayed against T1, coconut medium-chain LPAAT (Cocos nucifera, UniProt Q42670) (assay: Assay of solubilized coconut LPAAT (S3 preparation) with phospholipid activation). Conditions: radioactivity of PA product resolved on TLC, after 30 min assay; S3 reactivated with PLs; acceptor 12:0-LPA.
T1 construct: The frozen coconut P2 preparation is thawed and diluted in a volume of P2 Buffer; from tissue; host or cells: immature coconut endosperm, solubilized S3 supernatant of P2 membranes
T1 sequence (Q42670 1-308): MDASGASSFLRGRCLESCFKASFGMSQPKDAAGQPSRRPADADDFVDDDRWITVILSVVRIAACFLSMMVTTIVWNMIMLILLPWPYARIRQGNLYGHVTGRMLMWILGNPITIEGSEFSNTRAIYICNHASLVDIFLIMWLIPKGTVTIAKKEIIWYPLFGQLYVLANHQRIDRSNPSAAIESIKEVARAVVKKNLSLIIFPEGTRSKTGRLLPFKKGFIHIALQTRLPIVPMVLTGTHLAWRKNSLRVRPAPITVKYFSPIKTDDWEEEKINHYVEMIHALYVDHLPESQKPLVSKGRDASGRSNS
Assay type: biochemical
Method: After solubilization of LPAAT protein from plant membranes as described below, modification of the above assay conditions is required in order to detect maximum LPAAT activity. This is especially important after the solubilized LPAAT has been chromatographed on at least one column. The important modification to the assay is the addition, at the start of the assay procedure, of 1 μl of a concentrated phospholipid (PL) solution to 20 μl of the LPAAT-containing sample in a glass vial. The high concentrations of CHAPS (at least 1% w/v) and NaCl (typically 0.5M or greater) in the solubilized LPAAT preparation aid in dispersal of the phospholipids. The phospholipid solution is obtained by sonicating crude soybean phospholipids (L-phosphatidylcholine from soybean, "Type IVs" obtained from Sigma Chemical Company, St. Louis) at 50 mg/ml in 0.5% (w/v) CHAPS (3-[(3-cholamidopropyl) -dimethylammonio]-1-propane-sulfonate) until a uniform suspension is obtained.
The remaining assay ingredients (as described above), with the exception of the acyl-CoA substrate, are then added as 219 μl of a mixture. […] Radiolabeled acyl-CoA (10 μl, or an appropriately adjusted volume as indicated above) is added to start the LPAAT-catalyzed reaction and the rest of the assay procedure is completed as described above.
All steps are carried out at 0-4° C. The frozen coconut P2 preparation is thawed and diluted in a volume of P2 Buffer to achieve a protein concentration of 0.94 mg/ml P2 protein. Protein concentration is determined by Coomassie dye staining relative to a bovine serum albumin standard. The P2 membrane suspension is then diluted with an equal volume of Solubilization Buffer (50 mM HEPES-NaOH, pH 7.5, […], 20% (w/v) glycerol, 4.5% (w/v) CHAPS, 100 μM Pefabloc, 1 μM leupeptin, 1 μM Pepstatin A, and 5 mM β-ME), resulting in final concentrations of 1M NaCl, 2.25% (w/v) detergent, and 0.47 mg/ml protein. These component concentrations, and the resulting detergent/protein ratio of 48/1 (w/w), are important for optimal solubilization. The preparation is then incubated on ice for 30 minutes with occasional, gentle stirring, followed by centrifugation at 252,000×g for 2 hours. The resulting supernatant fraction (S3) is filtered through buffer-wetted Miracloth, and may then be stored frozen (-70) with only slight loss of activity. Optimally, it is applied to chromatography columns without an intervening freeze-thaw cycle.
Assay of the coconut medium-chain LPAAT activity after solubilization (S3 preparation) and reactivation with PLs, using different acyl-CoA substrates, provides the following results (Table 3). In all these assays the acceptor substrate is 12:0-LPA.

LPAAT Activity, solubilized coconut LPAAT [cpm]	SMILES
205	CCCCCCCCCCCC(=O)SCCNC(=O)CCNC(=O)[C@H](O)C(C)(C)COP(=O)(O)OP(=O)(O)OC[C@H]1O[C@@H](n2cnc3c(N)ncnc32)[C@H](O)[C@@H]1OP(=O)(O)O [12:0, lauroyl-CoA]
18	CCCCCCCCCCCCCCCC(=O)SCCNC(=O)CCNC(=O)[C@H](O)C(C)(C)COP(=O)(O)OP(=O)(O)OC[C@H]1O[C@@H](n2cnc3c(N)ncnc32)[C@H](O)[C@@H]1OP(=O)(O)O [16:0]
30	CCCCCCCC/C=C\CCCCCCCC(=O)SCCNC(=O)CCNC(=O)[C@H](O)C(C)(C)COP(=O)(O)OP(=O)(O)OC[C@H]1O[C@@H](n2cnc3c(N)ncnc32)[C@H](O)[C@@H]1OP(=O)(O)O [18:1, oleoyl-CoA]

More lines, now with the values behind:

SMILES	LPAAT Activity, solubilized coconut LPAAT [cpm]
CCCCCCCC(=O)SCCNC(=O)CCNC(=O)[C@H](O)C(C)(C)COP(=O)(O)OP(=O)(O)OC[C@H]1O[C@@H](n2cnc3c(N)ncnc32)[C@H](O)[C@@H]1OP(=O)(O)O [8:0]	16
CCCCCCCCCC(=O)SCCNC(=O)CCNC(=O)[C@H](O)C(C)(C)COP(=O)(O)OP(=O)(O)OC[C@H]1O[C@@H](n2cnc3c(N)ncnc32)[C@H](O)[C@@H]1OP(=O)(O)O [10:0]	162
CCCCCCCCCCCCCC(=O)SCCNC(=O)CCNC(=O)[C@H](O)C(C)(C)COP(=O)(O)OP(=O)(O)OC[C@H]1O[C@@H](n2cnc3c(N)ncnc32)[C@H](O)[C@@H]1OP(=O)(O)O [14:0]	84
